Laboratory results: ChEMBL document CHEMBL4477255, “Charting the chemical space around the (iso)indoline scaffold, a comprehensive approach towards multitarget directed ligands” (Bioorg Med Chem Lett, 2016)

Assays:
Type in all cases: cell-based
[1] = biological target: T1, 5-hydroxytryptamine receptor 6 (Homo sapiens, UniProt P50406); test: Displacement of [3H]LSD from human recombinant 5-HT6 receptor expressed in CHO-K1 cells at 1 uM incubated for 3 hrs by scintillation counting analysis
[2] = biological target: T2, D(3) dopamine receptor (Homo sapiens, UniProt P35462); test: Displacement of [3H]raclopride from human recombinant dopamine D3 receptor expressed in CHO-K1 cells at 1 uM incubated for 120 mins by liquid scintillation counting analysis
T2 sequence (P35462 whole entry): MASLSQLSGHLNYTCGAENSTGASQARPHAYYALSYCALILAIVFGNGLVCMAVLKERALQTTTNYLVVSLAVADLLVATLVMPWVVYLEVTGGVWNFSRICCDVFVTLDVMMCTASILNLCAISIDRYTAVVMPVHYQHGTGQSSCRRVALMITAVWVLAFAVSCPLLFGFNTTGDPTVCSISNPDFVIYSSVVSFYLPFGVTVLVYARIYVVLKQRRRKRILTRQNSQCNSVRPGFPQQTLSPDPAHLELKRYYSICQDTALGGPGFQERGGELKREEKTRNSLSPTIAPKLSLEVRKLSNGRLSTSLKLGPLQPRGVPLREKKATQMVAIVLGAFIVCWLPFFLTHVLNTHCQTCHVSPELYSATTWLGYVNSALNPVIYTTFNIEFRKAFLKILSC

[3] = biological target: T3, D(2) dopamine receptor (Homo sapiens, UniProt P14416); test: Displacement of [3H]raclopride from human recombinant dopamine D2 long receptor expressed in CHO-K1 cells at 1 uM incubated for 120 mins by scintillation counting analysis
T3 sequence (P14416 whole entry): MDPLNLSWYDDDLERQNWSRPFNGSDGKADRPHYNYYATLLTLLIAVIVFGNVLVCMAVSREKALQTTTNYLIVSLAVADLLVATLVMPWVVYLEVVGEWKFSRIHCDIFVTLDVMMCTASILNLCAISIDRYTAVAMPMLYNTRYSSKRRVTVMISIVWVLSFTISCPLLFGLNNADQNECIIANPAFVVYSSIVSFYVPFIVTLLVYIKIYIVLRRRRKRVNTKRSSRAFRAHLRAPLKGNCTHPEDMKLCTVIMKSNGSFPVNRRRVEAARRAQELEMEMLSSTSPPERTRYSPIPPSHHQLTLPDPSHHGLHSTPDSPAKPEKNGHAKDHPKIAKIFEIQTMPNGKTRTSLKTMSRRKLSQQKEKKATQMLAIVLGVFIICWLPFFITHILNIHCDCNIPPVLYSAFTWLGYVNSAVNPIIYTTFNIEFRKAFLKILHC

[4] = biological target: T4, Histamine H3 receptor (Homo sapiens, UniProt Q9Y5N1); test: Displacement of N-alpha-[methyl-3H]methylhistamine dihydrochloride from human recombinant histamine H3 receptor expressed in CHO-K1 cells at 1 uM incubated for 30 mins by liquid scintillation counting analysis
T4 sequence (Q9Y5N1 whole entry): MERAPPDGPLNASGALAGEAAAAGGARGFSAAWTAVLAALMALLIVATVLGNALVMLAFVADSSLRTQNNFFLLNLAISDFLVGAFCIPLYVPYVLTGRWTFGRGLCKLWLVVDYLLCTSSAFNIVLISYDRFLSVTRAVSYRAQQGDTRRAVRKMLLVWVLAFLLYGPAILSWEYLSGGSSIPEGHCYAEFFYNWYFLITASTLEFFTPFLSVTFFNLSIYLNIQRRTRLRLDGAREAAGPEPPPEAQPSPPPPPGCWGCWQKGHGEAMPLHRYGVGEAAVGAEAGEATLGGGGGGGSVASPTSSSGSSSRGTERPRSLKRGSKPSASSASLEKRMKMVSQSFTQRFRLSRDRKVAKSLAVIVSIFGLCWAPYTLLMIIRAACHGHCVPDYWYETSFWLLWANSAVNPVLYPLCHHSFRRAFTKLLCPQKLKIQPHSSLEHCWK

[5] = biological target: T1, 5-hydroxytryptamine receptor 6; test: Displacement of [3H]LSD from human recombinant 5-HT6 receptor expressed in CHO-K1 cells incubated for 3 hrs by scintillation counting analysis
[6] = biological target: T2, D(3) dopamine receptor; test: Displacement of [3H]raclopride from human recombinant dopamine D3 receptor expressed in CHO-K1 cells incubated for 120 mins by liquid scintillation counting analysis
[7] = biological target: T3, D(2) dopamine receptor; test: Displacement of [3H]raclopride from human recombinant dopamine D2 long receptor expressed in CHO-K1 cells incubated for 120 mins by scintillation counting analysis
[8] = organism: Homo sapiens; test: Selectivity index, ratio of Ki for human recombinant dopamine D3 receptor expressed in CHO-K1 cells to Ki for dopamine D2 long receptor expressed in CHO-K1 cells
[9] = biological target: T4, Histamine H3 receptor; test: Displacement of N-alpha-[methyl-3H]methylhistamine dihydrochloride from human recombinant histamine H3 receptor expressed in CHO-K1 cells incubated for 30 mins by liquid scintillation counting analysis

T1 sequence (P50406 whole entry): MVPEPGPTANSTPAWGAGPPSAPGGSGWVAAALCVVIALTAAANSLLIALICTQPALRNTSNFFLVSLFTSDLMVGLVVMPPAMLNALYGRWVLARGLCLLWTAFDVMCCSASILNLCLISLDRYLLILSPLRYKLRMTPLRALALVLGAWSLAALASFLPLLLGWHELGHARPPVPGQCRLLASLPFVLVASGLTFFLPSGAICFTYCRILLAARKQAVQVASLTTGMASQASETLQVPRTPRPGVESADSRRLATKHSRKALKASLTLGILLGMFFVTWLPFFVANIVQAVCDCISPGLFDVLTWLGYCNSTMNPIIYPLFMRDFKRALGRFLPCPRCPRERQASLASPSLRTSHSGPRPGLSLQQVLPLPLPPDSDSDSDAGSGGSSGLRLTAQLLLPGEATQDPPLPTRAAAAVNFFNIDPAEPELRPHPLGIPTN

| Compound | inhibition [1] | inhibition [2] | inhibition [3] | inhibition [4] | Ki [5] | Ki [6] | Ki [7] | Ratio Ki [8] | Ki [9] |
| --- | --- | --- | --- | --- | --- | --- | --- | --- | --- |
| O=S(=O)(c1ccccc1)N1Cc2ccc(N3CCNCC3)cc2C1 | 46% | 37% | 14% | 7% | 289 nM |  |  |  |  |
| O=S(=O)(c1ccccc1)N1Cc2ccc(C3CCN(C4CCC4)CC3)cc2C1 | -10% | 24% | 25% | 28% |  |  |  |  |  |
| CCCN1CCC(c2ccc3c(c2)CCN3S(=O)(=O)c2ccccc2)CC1 | 39% | 79% | 35% | 22% |  | 227 nM |  |  |  |
| CN1CCN(c2ccc3c(c2)N(S(=O)(=O)c2ccccc2)CC3)CC1 | 92% | 72% | 52% | -7% | 25 nM | 68 nM | 458 nM | < 10 |  |
| O=S(=O)(c1ccccc1)N1CCc2c(C3CCNCC3)cccc21 | 83% | 6% | 10% | -5% | 13 nM |  |  |  |  |
| CCN1CCN(c2ccc3c(c2)CN(S(=O)(=O)c2ccccc2)C3)CC1 | -7% | 61% | 22% | 60% |  | 688 nM |  |  | 294 nM |
| CN1CCN(c2ccc3c(c2)CCN3S(=O)(=O)c2ccccc2)CC1 | 84% | 85% | 18% | 35% | 440 nM | 108 nM |  |  |  |
| CCN1CCC(c2ccc3c(c2)CN(S(=O)(=O)c2ccccc2)C3)CC1 | 4% | 32% | 18% | 48% |  |  |  |  | 302 nM |
| CCN1CCN(c2ccc3c(c2)N(S(=O)(=O)c2ccccc2)CC3)CC1 | 86% | 95% | 77% | 20% | 60 nM | 16 nM | 136 nM | < 10 |  |
| O=S(=O)(c1ccccc1)N1Cc2cccc(N3CCNCC3)c2C1 | 98% | 61% | 29% | 11% | 1.9 nM | 505 nM |  |  |  |
| O=S(=O)(c1ccccc1)N1Cc2cccc(C3CCN(C4CCC4)CC3)c2C1 | 91% | -5% | 49% | 13% | 42 nM |  | 1830 nM |  |  |
| CN1CCN(c2cccc3c2CCN3S(=O)(=O)c2ccccc2)CC1 | 96% | 77% | 67% | 17% | 8.2 nM | 173 nM | 211 nM | 1.5 |  |
| CCCN1CCN(c2ccc3c(c2)N(S(=O)(=O)c2ccccc2)CC3)CC1 | 82% | 99% | 80% | 16% | 125 nM | 5.7 nM | 95 nM | < 10 |  |
| O=S(=O)(c1ccccc1)N1CCc2ccc(N3CCN(C4CCC4)CC3)cc21 | 60% | 78% | 50% | 36% | 186 nM | 173 nM | 411 nM | < 10 |  |
| CN1CCC(c2cccc3c2CCN3S(=O)(=O)c2ccccc2)CC1 | 87% | 13% | 35% | 10% | 45 nM |  |  |  |  |
| O=S(=O)(c1ccccc1)N1CCc2cc(C3CCNCC3)ccc21 | 74% | 20% | 13% | 2% | 175 nM |  |  |  |  |
| O=S(=O)(c1ccccc1)N1CCc2ccc(N3CCNCC3)cc21 | 95% | 58% | 32% | 4% | 12 nM | 330 nM |  | < 10 |  |
| CCCN1CCN(c2ccc3c(c2)CN(S(=O)(=O)c2ccccc2)C3)CC1 |  | 85% | 29% | 38% |  | 103 nM |  |  |  |
| CCN1CCC(c2ccc3c(c2)N(S(=O)(=O)c2ccccc2)CC3)CC1 | 95% | 86% | 39% | 11% | 23 nM | 95 nM |  | < 10 |  |
| O=S(=O)(c1ccccc1)N1CCc2cc(N3CCNCC3)ccc21 | 90% | 75% | 18% | 4% | 20 nM | 133 nM |  |  |  |
| CCN1CCC(c2cccc3c2CN(S(=O)(=O)c2ccccc2)C3)CC1 | 98% | 53% | 27% | 3% | 2.3 nM | 562 nM |  |  |  |

| Compound | inhibition [1] | inhibition [2] | inhibition [3] | inhibition [4] | Ki [5] | Ki [6] | Ki [7] | Ratio Ki [8] | Ki [9] |
| --- | --- | --- | --- | --- | --- | --- | --- | --- | --- |
| O=S(=O)(c1ccccc1)N1CCc2cc(C3CCN(C4CCC4)CC3)ccc21 | -9% | 48% | 22% | 11% |  | 1670 nM |  |  |  |
| CCCN1CCC(c2ccc3c(c2)CN(S(=O)(=O)c2ccccc2)C3)CC1 | 26% | 48% | 16% | 27% |  | 712 nM |  |  |  |
| O=S(=O)(c1ccccc1)N1CCc2ccc(C3CCN(C4CCC4)CC3)cc21 | 62% | 59% | 29% | 1% | 527 nM | 362 nM |  | < 10 |  |
| CCCN1CCN(c2cccc3c2CN(S(=O)(=O)c2ccccc2)C3)CC1 | 98% | 97% | 64% | 12% | 4.6 nM | 27 nM | 180 nM |  |  |
| O=S(=O)(c1ccccc1)N1Cc2cccc(N3CCN(C4CCC4)CC3)c2C1 | 98% | 72% | 47% | 16% | 4.8 nM | 525 nM | 1590 nM |  |  |
| CN1CCC(c2ccc3c(c2)CN(S(=O)(=O)c2ccccc2)C3)CC1 | 56% | 34% | 19% | 41% | 556 nM |  |  |  |  |
| CN1CCN(c2ccc3c(c2)CN(S(=O)(=O)c2ccccc2)C3)CC1 | 29% | 41% | 11% | 21% |  |  |  |  |  |
| CCCN1CCN(c2ccc3c(c2)CCN3S(=O)(=O)c2ccccc2)CC1 | 38% | 98% | 59% | 39% |  | 24 nM | 245 nM |  |  |
| O=S(=O)(c1ccccc1)N1CCc2ccc(C3CCNCC3)cc21 | 91% | 49% | 27% | -6% | 2.7 nM | 517 nM |  | < 10 |  |
| O=S(=O)(c1ccccc1)N1CCc2c(N3CCNCC3)cccc21 | 97% | 40% | 22% | 3% | 118 nM |  |  |  |  |
| CCCN1CCC(c2cccc3c2CN(S(=O)(=O)c2ccccc2)C3)CC1 | 92% | 55% | 40% | 4% | 21 nM | 212 nM |  |  |  |
| CN1CCN(c2cccc3c2CN(S(=O)(=O)c2ccccc2)C3)CC1 | 100% | 85% | 43% | 19% | 2.6 nM | 160 nM |  |  |  |
| CCN1CCN(c2cccc3c2CN(S(=O)(=O)c2ccccc2)C3)CC1 | 98% | 92% | 55% | 17% | 28 nM | 73 nM | 310 nM |  |  |
| CCCN1CCN(c2cccc3c2CCN3S(=O)(=O)c2ccccc2)CC1 | 78% | 97% | 87% | 27% | 74 nM | 17 nM | 42 nM | 1.5 |  |
| CN1CCC(c2ccc3c(c2)N(S(=O)(=O)c2ccccc2)CC3)CC1 | 93% | 75% | 34% | 3% | 25 nM | 121 nM |  | < 10 |  |
| O=S(=O)(c1ccccc1)N1CCc2cc(N3CCN(C4CCC4)CC3)ccc21 | 28% | 68% | 24% | 36% |  | 208 nM |  |  |  |
| O=S(=O)(c1ccccc1)N1Cc2ccc(N3CCN(C4CCC4)CC3)cc2C1 | 1% | 34% | 1% | 74% |  |  |  |  | 395 nM |
| O=S(=O)(c1ccccc1)N1Cc2ccc(C3CCNCC3)cc2C1 | 54% | 3% | 9% | 3% | 254 nM |  |  |  |  |
| CCCN1CCC(c2cccc3c2CCN3S(=O)(=O)c2ccccc2)CC1 | 45% | 56% | 38% | -5% | 1030 nM | 383 nM |  |  |  |
| CCCN1CCC(c2ccc3c(c2)N(S(=O)(=O)c2ccccc2)CC3)CC1 | 81% | 98% | 59% | 14% | 71 nM | 26 nM | 324 nM | < 10 |  |
